Source: patent US9346741B2, “Polyamine transport selective therapeutic agents with enhanced stability” (University of Central Florida Research Foundation, Inc., priority 2012, dated 2016)
Several values for one entry are separate records, joined by “and”; a condition that tells them apart may be missing. Equal values may be shown once. Read-outs that look alike come from different tables or passages of the source. Marks after values point to notes of the source that are not given here.

How the values were obtained:
[1] = system: CHO-MG* cells; experiment: Cytotoxicity IC50 determination (MTS) in polyamine-transport-deficient CHO-MG* cells; assay type: cell-based, Chinese hamster; details: 48 h at 37° C.
Source text: (§1) CHO cells were chosen along with a mutant cell line (CHO-MG*) to comment on how the synthetic conjugates gain access to the cells.^2c-e, 6 As discussed earlier, the CHO-MG cell line is polyamine-transport deficient and represents a model for alternative modes of entry (other than PTS) including passive diffusion or use of another transporter. The CHO cell line on the other hand, represents cells with high polyamine transport activity.^7, 10c A comparison of toxicity in these two CHO cell lines allowed for a screen that would detect selective use of the polyamine transporter. This is seen where high utilization of the PTS would be very toxic to CHO cells, however, there would not be the same level of toxicity found in CHO-MG cells.^2c-e, 6 Ultimately, a CHO-MG/CHO IC50 can be determined where a high ratio would be achieved for highly PTS selective compounds.
(§2) CHO and CHO-MG cells were grown in RPMI 1640 medium supplemented with 10% fetal calf serum and 1% penicillin/streptomycin. Note: the media must contain L-proline (2 μg/mL) for proper growth of the CHO-MG cells. MALME-3M cells were grown in RPMI 1640 medium supplemented with 10% FBS and 1% penicillin/streptomycin. […] Cells in early to mid-log phase were used.
(§3) Cell growth was assayed in sterile 96-well microtiter plates (Costar 3599, Corning, N.Y., USA). CHO and CHO-MG* cells were plated at 10,000 cells/mL. MALME-3M and MALME-3 cells were plated at 5,000 cells/mL. Drug solutions (10 μL per well) of appropriate concentration were added after an overnight incubation for each CHO cell line (90 μL). 48 h MALME-3M experiments were conducted using 10% Nu-Serum IV, and 96 h MALME-3M and MALME-3 experiments were conducted using 10% FBS. After exposure to the drug for 48 h (CHO, CHO-MG*, and MALME-3M) or 96 h (MALME-3M and MALME-3), cell growth was determined by measuring formazan
(§4) formation from 3-(4,5-dimethylthiazol-2-yl)-5-(3-carboxymethoxyphenyl)-2-(4-sulphenyl)-2H-tetrazolium) inner salt (MTS) using a SynergyMx Biotek microplate reader for absorbance ([…]) measurements.^24

[2] = in vitro; assay type: cell-based; details: Chinese hamster
Source text: as §1, §2, §3, §4

[3] = system: CHO cells; experiment: cells; assay type: cell-based; details: for IC50: 48 h at 37° C.; for MTD (μM) in CHO (maximum tolerated dose): hamster
Source text: as §1, §2, §3, §4

[4] = system: polyamine transport system (PTS), CHO-MG* vs CHO cells; experiment: CHO-MG*/CHO IC50 ratio, a measure of PTS selectivity; assay type: cell-based, Chinese hamster; details: 48 h; for IC50 ratio w/AG (CHO-MG*/CHO): with 1 mM AG; for IC50 ratio w/o AG (CHO-MG*/CHO): without AG
Source text: Compounds with high CHO-MG/CHO IC50 ratios are considered PTS selective.
as §1

[5] = system: MALME-3 cells; experiment: Spermidine rescue experiments in MALME-3 cells; assay type: cell-based, human; details: dosed near the IC50 value; increasing spermidine
Method: (§5) In order to validate that these drugs were toxic due to their use of the polyamine transport system, spermidine rescue experiments were conducted. Spermidine is a native polyamine and uses the PTS for cell entry. High concentrations of spermidine should outcompete the PTS-targeting drugs for cell entry. In this regard, spermidine when dosed at a non-toxic concentration should rescue the cells from the toxic effects of the PTS targeting agents. […] Both the anthryl and naphthyl systems when dosed at their IC50 concentrations gave >92% viability at 10 μM spermidine validating their use of the PTS. Rescue was observed from the initial 50% viability to >92% viability after co-dosing 10 μM spermidine.
(§6) As stated above, in an effort to determine if the cytotoxicities seen for compounds 6-8 were polyamine transport related, MALME-3M and MALME-3 were dosed near the IC50 value of each drug. These cells were also treated with increasing amounts of spermidine to see if it could outcompete compounds 6-8 for cellular entry and thus rescue the cells. […] This supports the premise that these compounds gain access to these cells primarily via the PTS. […] Since the viability of MALME-3M cells could be partially rescued by spermidine, compounds 8a and 8b may gain access via the PTS and via non-PTS related pathway(s).

[6] = system: polyamine transport system (PTS) in L1210 cells; details: cited from earlier work
[7] = system: MALME-3M (melanoma) vs MALME-3 (normal) cells; experiment: MALME-3/MALME-3M IC50 ratio, a measure of selectivity; assay type: cell-based, human; details: 96 h; 1 mM AG
Source text: These matched cell lines provided a method to assess PTS selectivity for the cancer line (MALME-3M) over the non-cancerous cell line (MALME-3).

[8] = system: MALME-3 cells; experiment: Cytotoxicity IC50 determination (MTS) in MALME-3 cells; assay type: cell-based, human; details: 96 h at 37° C., 1 mM AG, 10% FBS
Method: (§7) Armed with this insight, compounds 5a-8b were evaluated in the MALME-3M (melanoma) cell line and its non-cancerous counterpart MALME-3 obtained originally from the same patient. These matched cell lines provided a method to assess PTS selectivity for the cancer line (MALME-3M) over the non-cancerous cell line (MALME-3).
(§8) CHO and CHO-MG cells were grown in RPMI 1640 medium supplemented with 10% fetal calf serum and 1% penicillin/streptomycin. Note: the media must contain L-proline (2 μg/mL) for proper growth of the CHO-MG cells. MALME-3M cells were grown in RPMI 1640 medium supplemented with 10% FBS and 1% penicillin/streptomycin. All cells were grown at 37° C. under a humidified 5% CO2 atmosphere Aminoguanidine (1 mM) was added to the growth medium to prevent oxidation of the drugs by the enzyme (bovine serum amine oxidase) present in calf serum. Cells in early to mid-log phase were used.
as §3, §4

[9] = system: MALME-3M cells; experiment: Cytotoxicity IC50 determination (MTS) in MALME-3M cells; assay type: cell-based, human
Method: as §7, with “(MALME-3). […]” for “(MALME-3).”
as §8, §3, §4

[10] = system: 60 human cancer cell lines; experiment: NCI 60 cell-line screen; assay type: cell-based; details: 10 μM; 48 h
Method: Once compounds 6a-b, 7a-b, and 8a-8b were evaluated in CHO and CHO-MG*, these compounds were sent to the National Cancer institute (NCI) to conduct its 60 cell-line screen to determine if these compounds could also be potent anti-cancer agents for human cancer cell lines. […] As shown in FIGS. 2A-2C, dose response curves were generated based upon the 60 cell-line screen at different molar concentrations of each PTS targeting agent 6b, 7b, and 8b.
To generate FIGS. 2A-2C, the respective drug was dosed at 10 μM into each human cancer cell line and cell viability was assessed after a 48 h incubation at 37° C. in an environment of 5% CO2, 95% air and 100% relative humidity. A more descriptive methodology can be found at the NCI website: http://dtp.nci.nih.gov/branches/btb/ivclsp.html. Cell lines which gave bar graphs which extend to the right of the central line were more sensitive to the drug than cell lines which extended to the left of the center line.

[11] = system: MALME-3M cells; experiment: Spermidine rescue experiments in MALME-3M cells; assay type: cell-based, human; details: drug at its IC50 concentration, co-dosed 10 μM spermidine; cell line not given
Method: as §5, §6

[12] = system: 60 human cancer cell lines; experiment: NCI 60 cell-line screen; assay type: cell-based; details: 5-dose assay
[13] = system: polyamine transport system (PTS), CHO-MG vs CHO cells; details: original CHO-MG line; cited from earlier work
[14] = Cricetulus griseus, CHO-MG, Table 4, 1 mM AG 24 h prior to drug addition, read-out: CHO-MG* IC50
[15] = Cricetulus griseus, CHO, Table 4, 1 mM AG 24 h prior to drug addition, read-out: CHO IC50
[16] = 1 mM AG 24 h prior to drug addition, read-out: CHO-MG* IC50 (μM) w/AG
[17] = without AG, read-out: CHO-MG* IC50 (μM) w/o AG
[18] = 1 mM AG 24 h prior to drug addition, read-out: CHO IC50 (μM) w/AG
[19] = without AG, read-out: CHO IC50 (μM) w/o AG
[20] = 48 h at 37° C., 1 mM AG, 10% Nu-Serum IV, read-out: MALME-3M IC50 (μM) w/ AG
[21] = 48 h at 37° C., without AG, 10% Nu-Serum IV, read-out: MALME-3M IC50 (μM) w/o AG
[22] = 96 h at 37° C., 1 mM AG, 10% FBS, read-out: MALME-3M IC50

Row | Structure (SMILES) | IC50 [1, 14] [µM] | viability at 48 h, 0.01 μM [2] [%] | IC50 [3, 15] [µM] | MTD (μM) in CHO (maximum tolerated dose) [3] | IC50 ratio w/AG (CHO-MG*/CHO) [4] | IC50 [1, 16] [µM] | IC50 [1, 17] [µM] | rescue by exogenous spermidine in MALME-3 [5] | IC50 [3, 18] [µM] | IC50 [3, 19] [µM] | IC50 ratio w/o AG (CHO-MG*/CHO) [4] | MALME-3/MALME-3M IC50 ratio [7] | IC50 [8] [nM] | IC50 [9, 20] [µM] | IC50 [9, 21] [µM] | IC50 [9, 22] [µM] | also measured
1 | NCCCCNCCCCNCCCCNCc1cccc(CNCCCCNCCCCNCCCCN)c1 [Compound 34b, N^1,N^1′-(1,3-phenylenebis(methylene))bis(N^4-(4-((4-aminobutyl)amino)butyl)butane-1,4-diamine)] | 13.4 | ~90 | 0.04 | 0.01^g μM | 335 |  |  |  |  |  |  |  |  |  |  |  | 
2 | NCCCCNCCCCNCc1cccc(CNCCCCNCCCCN)c1 [Compound 34a, N^1,N^1′-(1,3-phenylenebis(methylene))bis(N^4-(4-aminobutyl)butane-1,4-diamine)] | 30 | ~90 | 0.028 | 0.01^f μM | 1072 |  |  |  |  |  |  |  |  |  |  |  | 
3 | Cl.NCCCCNCCCCNCc1ccc(CNCCCCNCCCCN)cc1 [Compound 8a] |  |  |  |  | 727 | 19.6 | 56.5 | complete rescue | 0.027 | 10.3 | 5.5 | 18 | 90 | 0.01 | 0.4 | 0.005 | Ki ([6]; read-out: Ki in L1210 cells): 520 nM; Ki ([6]; unit inferred, read-out: Ki values in L1210 cells): 490 ± 20 nM
4 | CNCCCCNCCCCNCc1ccc(CNCCCCNCCCCNC)cc1 [Compound 8b, N1,N1′-(1,4-Phenylenebis(methylene))bis(N4-(4-(methylamino)butyl)butane-1,4-diamine)] |  |  |  |  | 1715 |  |  | complete rescue |  |  | 1316 | 2 |  |  |  |  | IC50 ([1]; Cricetulus griseus, CHO-MG, 1 mM AG 24 h prior to drug addition, read-out: CHO-MG* IC50 (μM) w/AG): 51.5 µM; IC50 ([1]; Cricetulus griseus, CHO-MG, without AG, read-out: CHO-MG* IC50 (μM) w/o AG): 54 µM; IC50 ([3]; Cricetulus griseus, CHO, 1 mM AG 24 h prior to drug addition, read-out: CHO IC50 (μM) w/AG): 0.03 µM; IC50 ([3]; Cricetulus griseus, CHO, without AG, read-out: CHO IC50 (μM) w/o AG): 0.041 µM; effect on breast cancer cell lines in the NCI 60 cell-line screen [10]: exhibited an anti-proliferation effect in breast cancer cell lines, particularly the T-47D cell line; effect on melanoma cell lines in the NCI 60 cell-line screen [10]: inhibited the proliferation of melanoma cell lines, particularly the MALME-3M cell line; viability at 10 μM spermidine [11]: 75%; IC50 ([8]; Homo sapiens, MALME-3): 20 nM; NCI 5-dose assay, MALME-3M cell line [12]: dose dependent response; IC50 ([9]; Homo sapiens, Malme-3M, 48 h at 37° C., 1 mM AG, 10% Nu-Serum IV, read-out: MALME-3M IC50 (μM) w/ AG): 0.007 µM; IC50 ([9]; Homo sapiens, Malme-3M, 48 h at 37° C., without AG, 10% Nu-Serum IV, read-out: MALME-3M IC50 (μM) w/o AG): 0.007 µM; IC50 ([9]; Homo sapiens, Malme-3M, 96 h at 37° C., 1 mM AG, 10% FBS, read-out: MALME-3M IC50): 0.01 µM
5 | Cl.NCCCCNCCCCNCc1c2ccccc2cc2ccccc12 [Compound 5a, reference compound] |  |  |  |  | 43 and 42.8 | 13.7 | 2.2 |  | 0.32 | 1.5 | 1.4 | 3.1 | 830 | 0.48 | 0.29 | 0.27 | CHO-MG/CHO IC50 ratio [13]: 150 and 148
